Source: patent US10710996B2, “Pyrido-azaheterecydic compound and preparation method and use thereof” (SHANGHAI INSTITUTE OF MATERIA MEDICA, CHINESE ACADEMY OF …, priority 2015, dated 2020)

Columns and labels:
c-Met kinase = target: T1, c-Met kinase (Homo sapiens, UniProt P08581); experiment: Inhibitory effect on c-Met kinase activity at molecular level (ELISA); type: biochemical;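 further: recombinant c-Met kinase domain with 5 µM ATP, 1 h at 37 °C, substrate phosphorylation detected by anti-phosphotyrosine PY99 ELISA at 490 nm versus DMSO negative control, ATP-free wells as blank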
T1 construct: c-Met kinase domain recombinant protein diluted with 49 μL of the reaction buffer was added

EBC-1 cells = experiment: Inhibition of c-Met-mediated EBC-1 cell proliferation (SRB staining); type: cell-based; settings: Homo sapiens, 72 hours treatment
Experimental: The inhibitory effect of the compounds on the growth of non-small cell cancer EBC-1 cell (a cell line in which Met is continually activated due to the amplification of MET gene, and is a Met-dependent tumor cell line) was measured by sulforhodamine B (SRB) staining assay. A certain amount of EBC-1 cells in their logarithmic growth phase were seeded in 96-well plates at 90 μL per well and cultured overnight, then 10 μL of different concentrations of compounds or solvent control were added thereto, three wells for each concentration. After treated by the compound for 72 hours, the adherent cells were removed of culture medium and fixed with 10% (w/v) trichloroacetic acid (100 μL/well) at 4° C. for 1 hr followed by rinsing with distilled water five times. After drying at room temperature, 100 μL of SRB solution (dissolved in 1% glacial acetic acid at 4 mg/mL) was added to each well to incubate and stain the cells for 15 min at room temperature, then unbound SRB was washed off with 1% glacial acetic acid for five times. After drying at room temperature, 100 μL of 10 mM Tris solution was added to each well. The optical density (OD value) at 515 nm was read on a VERSMax microplate reader. […] The experiment was repeated twice. The IC50 data was calculated as a range based on the test results of concentrations set in the initial screening test.

T1 sequence (P08581 1078-1345 limits assumed): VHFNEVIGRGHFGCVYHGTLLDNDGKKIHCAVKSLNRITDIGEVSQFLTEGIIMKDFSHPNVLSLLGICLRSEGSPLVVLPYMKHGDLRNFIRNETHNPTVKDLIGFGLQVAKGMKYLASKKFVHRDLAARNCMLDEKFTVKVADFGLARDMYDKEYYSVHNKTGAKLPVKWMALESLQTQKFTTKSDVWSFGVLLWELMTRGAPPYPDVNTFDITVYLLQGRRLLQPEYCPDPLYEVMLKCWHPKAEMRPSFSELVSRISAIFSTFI

Structure (SMILES) | IC50 (c-Met kinase) [µM] | IC50 (EBC-1 cells) [µM]
CN1CCC(COc2cc3nccc(Oc4ccc(NC(=O)C5(C(=O)Nc6ccc(F)cc6)CC5)cc4F)c3cn2)CC1 [Compound 9S, N-(3-fluoro-4-((7-((1-methylpiperidin-4-yl)methoxy)-1,6-naphthyridin-4-yl)oxy)phenyl)-N-(4-fluorophenyl) cyclopropyl-1,1-dicarboxamide] | 0.001 to 0.01 | 0.01 to 0.1
CN1CCN(CCOc2cc3nccc(Oc4ccc(NC(=O)C5(C(=O)Nc6ccc(F)cc6)CC5)cc4F)c3cn2)CC1 [Compound 11S, N-(3-fluoro-4-((7-(2-(4-methylpiperazin-1-yl)ethoxy)-1,6-naphthyridin-4-yl)oxy)phenyl)-N-(4-fluorophenyl) cyclopropyl-1,1-dicarboxamide] | 0.001 to 0.01 | 0.1 to 1
O=C(Nc1ccc(F)cc1)C1(C(=O)Nc2ccc(Oc3ccnc4cc(OCCN5CCOCC5)ncc34)cc2)CC1 [Compound 12S, N-(4-fluorophenyl)-N-(4-((7-(2-morpholinoethoxy)-1,6-naphthyridin-4-yl)oxy)phenyl)cyclopropyl-1,1-dicarboxamide] | 0.001 to 0.01 | 0.1 to 1
O=C(Nc1ccc(F)cc1)C1(C(=O)Nc2ccc(Nc3ccnc4cc(OCCN5CCOCC5)ncc34)cc2)CC1 [Compound 13S, N-(4-fluorophenyl)-N-(4-((7-(2-morpholinoethoxy)-1,6-naphthyridin-4-yl)amino)phenyl)cyclopropyl-1,1-dicarboxamide] | 0.001 to 0.01 | 0.1 to 1
O=C(Nc1ccc(Oc2ccnc3cc(OCCN4CCOCC4)ncc23)c(F)c1)c1cccn(-c2ccc(F)cc2)c1=O [Compound 15S, N-(3-fluoro-4-((7-(2-morpholinoethoxy)-1,6-naphthyridin-4-yl)oxy)phenyl)-1-(4-fluorophenyl)-2-oxo-1,2-dihydropyridine-3-carboxamide] | 0.001 to 0.01 | 0.01 to 0.1
O=C(Nc1ccc(Oc2ccnc3cc(OCCN4CCOCC4)ncc23)c(F)c1)c1c[nH]cc(-c2ccccc2)c1=O [Compound 20S, N-(3-fluoro-4-((7-(2-morpholinoethoxy)-1,6-naphthyridin-4-yl)oxy)phenyl)-4-oxo-5-phenyl-1,4-dihydropyridine-3-carboxamide] | 0.001 to 0.01 | 0.01 to 0.1
O=C(Nc1ccc(Oc2ccnc3cc(OCCN4CCOCC4)ncc23)c(F)c1)c1c[nH]cc(-c2ccc(F)cc2)c1=O [Compound 22S, N-(3-fluoro-4-((7-(2-morpholinoethoxy)-1,6-naphthyridin-4-yl)oxy)phenyl)-5-(4-fluorophenyl)-4-oxo-1,4-dihydropyridine-3-carboxamide] | 0.001 to 0.01 | 0.01 to 0.1
O=C(Nc1ccc(F)c(F)c1)C1(C(=O)Nc2ccc(Oc3ccnc4cc(OCCN5CCOCC5)ncc34)c(F)c2)CC1 [Compound 23S, N-(3,4-difluorophenyl)-N-(3-fluoro-4-((7-(2-morpholinoethoxy)-1,6-naphthyridin-4-yl)oxy)phenyl) cyclopropyl-1,1-dicarboxamide] | 0.001 to 0.01 | 0.1 to 1
COc1cc(NC(=O)C2(C(=O)Nc3ccc(Oc4ccnc5cc(OCCN6CCOCC6)ncc45)c(F)c3)CC2)ccc1F [Compound 24S, N-(4-fluoro-3-methoxyphenyl)-N-(3-fluoro-4-((7-(2-morpholinoethoxy)-1,6-naphthyridin-4-yl)oxy)phenyl) cyclopropyl-1,1-dicarboxamide] | 0.001 to 0.01 | 0.1 to 1
O=C(Nc1ccc(F)cc1)C1(C(=O)Nc2ccc(Oc3ccnc4cc(OCCc5ccncc5)ncc34)c(F)c2)CC1 [Compound 25S, N-(3-fluoro-4-((7-(2-(pyridin-4-yl)ethoxy)-1,6-naphthyridin-4-yl)oxy)phenyl)-N-(4-fluorophenyl)cyclopropyl-1,1-dicarboxamide] | 0.001 to 0.01 | 0.1 to 1
CC(CN1CCOCC1)Oc1cc2nccc(Oc3ccc(NC(=O)C4(C(=O)Nc5ccc(F)cc5)CC4)cc3F)c2cn1 (centres unmarked) [Compound 26S, N-(3-fluoro-4-((7-((1-morpholinopropan-2-yl)oxy)-1,6-naphthyridin-4-yl)oxy)phenyl)-N-(4-fluorophenyl) cyclopropyl-1,1-dicarboxamide] | 0.01 to 0.1 | 0.1 to 1
O=C1COCCN1CCOc1cc2nccc(Oc3ccc(NC(=O)C4(C(=O)Nc5ccc(F)cc5)CC4)cc3F)c2cn1 [Compound 37S, N-(3-fluoro-4-((7-(2-(3-oxomorpholino)ethoxy)-1,6-naphthyridin-4-yl)oxy)phenyl)-N-(4-fluorophenyl) cyclopropyl-1,1-dicarboxamide] | 0.001 to 0.01 | 0.01 to 0.1
O=C(Nc1ccc(F)cc1)C1(C(=O)Nc2ccc(Oc3ccnc4cc(-c5cnn(C6CCNCC6)c5)ncc34)c(F)c2)CC1 [Compound 42S, N-(3-fluoro-4-((7-(1-(piperidin-4-yl)-1H-pyrazol-4-yl)-1,6-naphthyridin-4-yl)oxy)phenyl)-N-(4-fluorophenyl) cyclopropyl-1,1-dicarboxamide] | 0.001 to 0.01 | 0.001 to 0.01
CC(C)N1CCC(n2cc(-c3cc4nccc(Oc5ccc(NC(=O)C6(C(=O)Nc7ccc(F)cc7)CC6)cc5F)c4cn3)cn2)CC1 [Compound 43S, N-(3-fluoro-4-((7-(1-(1-isopropylpiperidin-4-yl)-1H-pyrazol-4-yl)-1,6-naphthyridin-4-yl)oxy)phenyl)-N-(4-fluorophenyl)cyclopropyl-1,1-dicarboxamide] | 0.001 to 0.01 | 0.1 to 1

Continued, in another order:

IC50 (c-Met kinase) [µM] | Structure (SMILES) | IC50 (EBC-1 cells) [µM]
0.001 to 0.01 | CN(C)c1cc2nccc(Oc3ccc(NC(=O)C4(C(=O)Nc5ccc(F)cc5)CC4)cc3F)c2cn1 [Compound 2S, N-(4-((7-(dimethylamino)-1,6-naphthyridin-4-yl)oxy)-3-fluorophenyl)-N-(4-fluorophenyl)cyclopropyl-1,1-dicarboxamide] | 0.01 to 0.1
0.001 to 0.01 | COc1cc2nccc(Oc3ccc(NC(=O)C4(C(=O)Nc5ccc(F)cc5)CC4)cc3F)c2cn1 [Compound 3S, N-(4-((7-methoxy-1,6-naphthyridin-4-yl)oxy)-3-fluorophenyl)-N-(4-fluorophenyl)cyclopropyl-1,1-dicarboxamide] | 0.1 to 1
0.001 to 0.01 | Cn1cc(-c2cc3nccc(Oc4ccc(NC(=O)C5(C(=O)Nc6ccc(F)cc6)CC5)cc4F)c3cn2)cn1 [Compound 38S, N-(3-fluoro-4-((7-(1-methyl-1H-pyrazol-4-yl)-1,6-naphthyridin-4-yl)oxy)phenyl)-N-(4-fluorophenyl)cyclopropyl-1,1-dicarboxamide] | 0.001 to 0.01
0.001 to 0.01 | O=C(Nc1ccc(F)cc1)C1(C(=O)Nc2ccc(Oc3ccnc4cc(-c5cn[nH]c5)ncc34)c(F)c2)CC1 [Compound 39S, N-(4-((7-(1H-pyrazol-4-yl)-1,6-naphthyridin-4-yl)oxy)-3-fluorophenyl)-N-(4-fluorophenyl)cyclopropyl-1,1-dicarboxamide] | 0.001 to 0.01
0.001 to 0.01 | CS(=O)(=O)n1cc(-c2cc3nccc(Oc4ccc(NC(=O)C5(C(=O)Nc6ccc(F)cc6)CC5)cc4F)c3cn2)cn1 [Compound 40S, N-(3-fluoro-4-((7-(1-(methylsulfonyl)-1H-pyrazol-4-yl)-1,6-naphthyridin-4-yl)oxy)phenyl)-N-(4-fluorophenyl) cyclopropyl-1,1-dicarboxamide] | 0.01 to 0.1
0.001 to 0.01 | CC(C)n1cc(-c2cc3nccc(Oc4ccc(NC(=O)C5(C(=O)Nc6ccc(F)cc6)CC5)cc4F)c3cn2)cn1 [Compound 41S, N-(3-fluoro-4-((7-(1-isopropyl-1H-pyrazol-4-yl)-1,6-naphthyridin-4-yl)oxy)phenyl)-N-(4-fluorophenyl) cyclopropyl-1,1-dicarboxamide] | 0.001 to 0.01
0.01 to 0.1 | O=C(Nc1ccc(F)cc1)C1(C(=O)Nc2ccc(Oc3ccnc4cc(Cn5ccnc5)ncc34)c(F)c2)CC1 [Compound 44S, N-(4-((7-((1H-imidazol-1-yl)methyl)-1,6-naphthyridin-4-yl)oxy)-3-fluorophenyl)-N-(4-fluorophenyl)cyclopropyl-1,1-dicarboxamide] | 0.1 to 1
0.1 to 1 | Cc1noc(C)c1-c1cc2nccc(Oc3ccc(NC(=O)C4(C(=O)Nc5ccc(F)cc5)CC4)cc3F)c2cn1 [Compound 45S, N-(4-((7-(3,5-dimethylisoxazol-4-yl)-1,6-naphthyridin-4-yl)oxy)-3-fluorophenyl)-N-(4-fluorophenyl) cyclopropyl-1,1-dicarboxamide] | 1 to 10
0.001 to 0.01 | O=C(Nc1ccc(F)cc1)C1(C(=O)Nc2ccc(Oc3ccnc4cc(-c5ccncc5)ncc34)c(F)c2)CC1 [Compound 46S, N-(3-fluoro-4-((7-(pyridin-4-yl)-1,6-naphthyridin-4-yl)oxy)phenyl)-N-(4-fluorophenyl)cyclopropyl-1,1-dicarboxamide] | 0.1 to 1
0.001 to 0.01 | O=C(Nc1ccc(F)cc1)C1(C(=O)Nc2ccc(Oc3ccnc4cc(-c5cncnc5)ncc34)c(F)c2)CC1 [Compound 47S, N-(3-fluoro-4-((7-(pyrimidin-5-yl)-1,6-naphthyridin-4-yl)oxy)phenyl)-N-(4-fluorophenyl)cyclopropyl-1,1-dicarboxamide] | 0.01 to 0.1
0.001 to 0.01 | O=C(Nc1ccc(F)cc1)C1(C(=O)Nc2ccc(Oc3ccnc4cc(-c5ccc(F)c(F)c5)ncc34)c(F)c2)CC1 [Compound 49S, N-(3-fluoro-4-((7-(3,4-difluorophenyl)-1,6-naphthyridin-4-yl)oxy)phenyl)-N-(4-fluorophenyl)cyclopropyl-1,1-dicarboxamide] | 0.01 to 0.1
